This note sets out measurements from BindingDB's records for doi:10.7270/Q2D798VP (Broad Institute, 2009).

The structures appear in SMILES notation.

This assay addresses T1, Zinc finger protein mex-5 (Caenorhabditis elegans, UniProt Q9XUB2).
T1 sequence (Q9XUB2 whole entry): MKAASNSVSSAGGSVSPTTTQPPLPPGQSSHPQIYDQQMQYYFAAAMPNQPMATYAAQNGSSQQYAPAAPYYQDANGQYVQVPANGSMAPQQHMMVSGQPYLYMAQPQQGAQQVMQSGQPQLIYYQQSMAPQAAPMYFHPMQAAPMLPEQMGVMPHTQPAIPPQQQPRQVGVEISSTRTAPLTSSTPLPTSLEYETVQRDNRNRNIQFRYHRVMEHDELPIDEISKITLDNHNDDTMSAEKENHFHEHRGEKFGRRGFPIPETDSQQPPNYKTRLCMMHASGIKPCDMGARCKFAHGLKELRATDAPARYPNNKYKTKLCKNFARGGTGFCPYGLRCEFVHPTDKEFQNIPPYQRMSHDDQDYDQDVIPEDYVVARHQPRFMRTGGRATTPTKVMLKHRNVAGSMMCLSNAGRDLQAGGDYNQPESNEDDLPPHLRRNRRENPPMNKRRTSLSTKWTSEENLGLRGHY
Description: potency of MEX-5 RNA-binding blockers – biochemical, C. elegans, fluorescence polarization, dose response (AID 1960). (Polarisation of emitted light reports the rotation of a fluorescent probe.)

As for `Cc1ccc(C(=O)Cc2nc3ccccc3oc2=O)cc1` [(3Z)-3-[2-(4-methylphenyl)-2-oxidanylidene-ethylidene]-4H-1,4-benzoxazin-2-one], the EC50 – broadly, the midpoint of the concentration-response curve – is > 300 µM.

As to `CC1(C)CC(=O)C2=C(C1)OC(=N)C(C#N)C2c1ccc(OC(=O)N2CCOCC2)cc1` (stereo unspecified) [4-morpholinecarboxylic acid [4-(2-amino-3-cyano-7,7-dimethyl-5-oxo-6,8-dihydro-4H-1-benzopyran-4-yl)phenyl] ester], the EC50 was > 300 µM.

`CN(C)c1ccc(C=NN(CCC(=O)NC(C)(C)C)C2=NS(=O)(=O)c3ccccc32)cc1` [SMR000556213]: the EC50 was 36.3 µM.

Compound `Cc1nnc(=O)[nH]c1N=NCC1C=CC(=O)C([N+](=O)[O-])=C1` (stereo unspecified) [MLS000585487] yielded an EC50 of 65.5 µM.

`CCOC(=O)c1c2ccc(OCC(=O)NN=Cc3ccc(Cl)cc3)cc2n2ccccc12` [3-[2-[2-[(4-chlorophenyl)methylidene]hydrazinyl]-2-oxoethoxy]-10-pyrido[1,2-a]indolecarboxylic acid ethyl ester] yielded an EC50 of 160 µM.

Turning to `CCN(CC)c1ccc(NC=C2C(=O)NC(=O)N(Cc3ccccc3)C2=O)cc1` [(5E)-1-benzyl-5-[[4-(diethylamino)anilino]methylene]barbituric acid], the EC50 was > 300 µM.

Turning to `Cc1ccc2oc(=O)c(CC(=O)CC(C)C)nc2c1` [(3Z)-3-(2-keto-4-methyl-pentylidene)-6-methyl-4H-1,4-benzoxazin-2-one], the EC50 was > 300 µM.

Take `Cc1nnc(SC(=Cc2ccc(-c3ccc(Cl)cc3)o2)C(=O)O)[nH]1` [(E)-3-[5-(4-chlorophenyl)furan-2-yl]-2-[(5-methyl-1H-1,2,4-triazol-3-yl)sulfanyl]prop-2-enoic acid]: the EC50 is 29.6 µM.

On to `O=C1NC(=O)N(CCc2ccccc2)C(=O)C1=CNCCCn1ccnc1` [(5E)-5-[(3-imidazol-1-ylpropylamino)methylene]-1-phenethyl-barbituric acid], for which the EC50 is > 300 µM.

Turning to `CN(C)c1ccc(NC=C2C(=O)NC(=O)N(CCC3=CCCCC3)C2=O)cc1` [(5Z)-1-[2-(cyclohexen-1-yl)ethyl]-5-[[[4-(dimethylamino)phenyl]amino]methylidene]-1,3-diazinane-2,4,6-trione], the EC50 was > 300 µM.

Turning to `COc1[nH]c(N=Cc2ccccc2)c(C#N)c1C#N` [2-methoxy-5-[(phenylmethylene)amino]-1H-pyrrole-3,4-dicarbonitrile], a half-maximal response (EC50) required 5.63 µM.

For `O=C1CCCC2=Nc3cc(Cl)ccc3SC12` (stereo unspecified) [MLS000333002], the EC50 was found to be 8.9 µM. This EC50 is about 1.6-fold higher than that of the compound before.

As for `Cc1n[nH]c(C)c1Sc1ccccc1/N=C/C1C=C(Cl)C=C([N+](=O)[O-])C1=O` (stereo unspecified) [(6E)-4-chloranyl-6-[[[2-[(3,5-dimethyl-1H-pyrazol-4-yl)sulfanyl]phenyl]amino]methylidene]-2-nitro-cyclohexa-2,4-dien-1-one], the EC50 is 7.57 µM.

As to `CC(=O)Nc1ccc(N=CCC(=O)c2ccc(C)o2)cc1` [MLS000089004], the EC50 was > 300 µM.

On to `Cc1ccc(CN=Nc2ncnc3nc[nH]c23)cc1` [MLS000419179], for which the EC50 is > 300 µM.

The compound `Cc1cccc(NNC2=c3cc(Br)ccc3=NC2=O)c1` [5-bromo-3-[2-(3-methylphenyl)hydrazinyl]indol-2-one] had an EC50 of 26.9 µM.

`O=C(Cc1nc2cc(Cl)ccc2oc1=O)c1cccs1` [(3Z)-6-chloranyl-3-(2-oxidanylidene-2-thiophen-2-yl-ethylidene)-4H-1,4-benzoxazin-2-one] showed an EC50 of 153 µM.

`O=C1NC(=O)N(c2cccc(F)c2)C(=O)C1=Cc1c[nH]c2ccccc12`: the concentration giving a half-maximal response (EC50) was 36.6 µM.

With `C=CC(=O)N1CCCC(n2nc(-c3ccc(Oc4ccccc4)cc3)c3c(N)ncnc32)C1` (stereo unspecified) [US8497277, 4], the EC50 is > 300 µM.

On to `O=C(CC=Nc1ccc([N+](=O)[O-])cc1)c1ccc(Br)cc1` [(E)-1-(4-bromophenyl)-3-(4-nitroanilino)-2-propen-1-one], for which the EC50 is > 300 µM.

Consider `NC(=NNC=c1ccc(=C2C=CC(=O)C(C(=O)O)=C2)o1)N[N+](=O)[O-]` [5-(5-{2-[amino(nitroimino)methyl]carbonohydrazonoyl}-2-furyl)-2-hydroxybenzoic acid], for which a half-maximal effect (EC50) was put at 26.1 µM.

As to `O=C1c2cccc3cccc(c23)C(=O)C1[N+](=O)[O-]` [2-nitro-3-oxidanyl-phenalen-1-one], the EC50 was determined as 9.23 µM.

With `Cc1c(NC=C2C(=O)NC(=O)N(Cc3ccccc3)C2=O)c(=O)n(-c2ccccc2)n1C` [(5E)-1-benzyl-5-[[(1,5-dimethyl-3-oxo-2-phenylpyrazol-4-yl)amino]methylidene]-1,3-diazinane-2,4,6-trione], the EC50 was > 300 µM.

Regarding `COc1ccc(N=C(C)c2sc3ccccc3c2O)cc1` [(2Z)-2-[1-(4-methoxyanilino)ethylidene]-1-benzothiophen-3-one], the midpoint of the response, the EC50, lay at 17.7 µM.

`CN1CCC2=C(C#N)C(=N)C(C#N)(C#N)[C@H](c3cccc(Cl)c3)C2C1` (stereo partly drawn) [(8S)-6-amino-8-(3-chlorophenyl)-2-methyl-1,3,8,8a-tetrahydroisoquinoline-5,7,7-tricarbonitrile] registered an EC50 of 11.6 µM.

`Oc1ccc(C=Nn2c(O)csc2=S)c(O)c1O` [3-[[(E)-[2,3-bis(oxidanyl)-4-oxidanylidene-cyclohexa-2,5-dien-1-ylidene]methyl]amino]-2-sulfanylidene-1,3-thiazolidin-4-one] had an EC50 of 0.668 µM.

Compound `[H]/N=C1/OC23CCCCC2C(C#N)(C#N)C1(C#N)C(c1ccc(OC)cc1)O3` (stereo unspecified) [MLS000554241] displayed an EC50 of 11.2 µM. This EC50 is about 17-fold higher than that of the compound before.

In turn, `COC(=O)Cn1cc(C=C2C(=O)NC(=O)N(c3ccccc3)C2=O)c2ccccc21` [[3-(2,4,6-Trioxo-1-phenyl-tetrahydro-pyrimidin-5-ylidenemethyl)-indol-1-yl]-acetic acid methyl ester] yielded an EC50 of 143 µM.

Turning to `Cc1ccc(Cl)c2c1=NC(=O)C=2NNc1ccccc1`, the EC50 is > 300 µM.

For the compound `Cc1cc(CN=Nc2ccc([N+](=O)[O-])cn2)c(C)n1-c1ccc(C(=O)O)cc1` [4-{2,5-dimethyl-3-[2-(5-nitro-2-pyridinyl)carbonohydrazonoyl]-1H-pyrrol-1-yl}benzoic acid], the midpoint of the response, the EC50, lay at 111 µM.

For the compound `CCCCN1C(=O)NC(=O)C(=CNNC(=O)c2ccncc2)C1=O` [Isonicotinic acid N'-[1-butyl-2,4,6-trioxo-tetrahydro-pyrimidin-(5E)-ylidenemethyl]-hydrazide], the EC50 is > 300 µM.

On to `O=[N+]([O-])c1cc/c(=N\c2ccccc2O)c2no[nH]c1-2` [MLS001206694], for which the EC50 was found to be 28.2 µM. That is a double-digit micromolar value.

Regarding `COc1cc(C2C3=C(CCCC3=O)OC(=N)C2C#N)cc2c1OCO2` (stereo unspecified), the EC50 was > 300 µM.

`C=c1c(C(=O)OC)c(O)c(=Cc2cccs2)n1-c1ccc(Cl)cc1` [(5E)-1-(4-chlorophenyl)-2-methyl-4-oxo-5-(thiophen-2-ylmethylidene)-3-pyrrolecarboxylic acid methyl ester]: the EC50 is > 300 µM.

As for `CSc1ccc(C2C(C(=O)c3ccco3)C(=O)C(=O)N2c2nnc(SC)s2)cc1` (stereo unspecified) [3-(furan-2-carbonyl)-4-hydroxy-2-(4-methylsulfanylphenyl)-1-(5-methylsulfanyl-1,3,4-thiadiazol-2-yl)-2H-pyrrol-5-one], the response was half-maximal at 16.4 µM (EC50).

Turning to `C=CCOc1cccc(C2C(C(=O)c3ccco3)C(=O)C(=O)N2Cc2ccco2)c1` (stereo unspecified) [1-(2-furanylmethyl)-3-[2-furanyl(oxo)methyl]-4-hydroxy-2-(3-prop-2-enoxyphenyl)-2H-pyrrol-5-one], the EC50 is > 300 µM.

`COc1ccc(C(C)N=Nc2nc3ccccc3nc2C)cc1OC` (stereo unspecified) [MLS001029936] yielded an EC50 of 66.5 µM. This lies in the double-digit micromolar range.

Compound `C/N=c1\ccc2nc3ccccc3n(C)c-2c1` [N,10-dimethyl-2-phenazin-10-iumamine;perchlorate] returned an EC50 of 14.8 µM. This EC50 lies about 4.5-fold lower than the previous one.

`Cc1nnc(N2C(=O)C(=O)C(C(=O)c3ccco3)C2c2ccc(C(C)(C)C)cc2)s1` (stereo unspecified) [2-(4-tert-butylphenyl)-3-(furan-2-carbonyl)-4-hydroxy-1-(5-methyl-1,3,4-thiadiazol-2-yl)-2H-pyrrol-5-one] came in with an EC50 of 7.86 µM. This EC50 is about 1.9-fold lower than that of the compound before.

As for `CN(C)CCCNC=C1C(=O)NC(=O)N(CCc2ccc(F)cc2)C1=O` [(5E)-5-[[3-(dimethylamino)propylamino]methylene]-1-[2-(4-fluorophenyl)ethyl]barbituric acid], the EC50 is > 300 µM.

Consider `C=CCN1C(=O)NC(=O)C(=CNc2ccc(N(CC)CC)cc2)C1=O` [(5E)-1-allyl-5-[[4-(diethylamino)anilino]methylene]barbituric acid], for which a half-maximal effect (EC50) was put at 113 µM.

As to `Cc1cccc(Nc2nc(O)cs2)c1` [2-(3-methylanilino)-1,3-thiazol-4-one], the EC50 is > 300 µM.

As for `C=CCOc1cccc(C2C(C(=O)c3ccc(C)o3)C(=O)C(=O)N2c2nnc(C)s2)c1` (stereo unspecified) [3-(5-methylfuran-2-yl)carbonyl-1-(5-methyl-1,3,4-thiadiazol-2-yl)-4-oxidanyl-2-(3-prop-2-enoxyphenyl)-2H-pyrrol-5-one], the midpoint of the response, the EC50, lay at 210 µM.

The compound `COCCNC(=O)Cn1cc(C=C2C(=O)NC(=O)N(c3ccccc3F)C2=O)c2ccccc21` [2-(3-{(E)-[1-(2-fluorophenyl)-2,4,6-trioxotetrahydropyrimidin-5(2H)-ylidene]methyl}-1H-indol-1-yl)-N-(2-methoxyethyl)acetamide] returned an EC50 of 8.13 µM.

In the case of `CC1=C(C#N)C(=O)N(C)C(=O)C1=CN` [(5Z)-5-(aminomethylidene)-1,4-dimethyl-2,6-dioxopyridine-3-carbonitrile], the concentration for a half-maximal effect (EC50) was > 300 µM.

In the case of `O=C1NC(=O)N(CCc2ccccc2)C(=O)C1=CNNC(=O)c1ccccc1O` [2-hydroxy-N'-[(E)-[2,4,6-trioxo-1-(2-phenylethyl)-1,3-diazinan-5-ylidene]methyl]benzohydrazide], a half-maximal effect (EC50) was put at 201 µM.
